PubChem BioAssay (NCI)
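How tested: cells in 96-well plates exposed to compound for 48 hours at five concentrations. TGI is the concentration that stops growth completely.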

How the values were obtained:
Experiment in all cases: inhibition of tumour cell growth, NCI panel, 48 h
[1] = system: HOP-62 NSCLC
[2] = system: ACHN renal
[3] = system: CAKI-1 renal
[4] = system: T-47D breast
[5] = system: LOX IMVI melanoma
[6] = system: NCI-H460 lung
[7] = system: OVCAR-3 ovarian
[8] = system: SK-MEL-28 melanoma
[9] = system: TK-10 renal
[10] = system: SK-MEL-2 melanoma
[11] = system: SF-268 CNS
[12] = system: 786-0 renal
[13] = system: A498 renal
[14] = system: SK-MEL-5 melanoma
[15] = system: RXF 393 renal
[16] = system: PC-3 prostate
[17] = system: SF-295 CNS
[18] = system: OVCAR-8 ovarian
[19] = system: HCT-15 colon
[20] = system: MDA-N
[21] = system: UACC-257 melanoma
[22] = system: OVCAR-4 ovarian
[23] = system: HCT-116 colon
[24] = system: HL-60(TB) leukemia
[25] = system: SF-539 CNS
[26] = system: M14 melanoma
[27] = system: EKVX NSCLC
[28] = system: HOP-92 NSCLC
[29] = system: MALME-3M melanoma
[30] = system: IGROV1 ovarian
[31] = system: DU-145 prostate
[32] = system: HT29 colon
[33] = system: SW-620 colon
[34] = system: SNB-19 CNS
[35] = system: NCI/ADR-RES ovarian
[36] = system: CCRF-CEM leukemia
[37] = system: SNB-75 CNS
[38] = system: MOLT-4 leukemia
[39] = system: HCC-2998 colon
[40] = system: K-562 leukemia
[41] = system: NCI-H522 lung
[42] = system: MDA-MB-231 breast
[43] = system: SK-OV-3 ovarian
[44] = system: KM12 colon
[45] = system: BT-549 breast
[46] = system: UO-31 renal
[47] = system: COLO 205 colon
[48] = system: NCI-H226 lung
[49] = system: MCF7 breast
[50] = system: SN12C renal
[51] = system: U251 CNS
[52] = system: HS 578T breast
[53] = system: A549 NSCLC
[54] = system: MDA-MB-435
[55] = system: UACC-62 melanoma
[56] = system: NCI-H23 lung
[57] = system: OVCAR-5 ovarian
[58] = system: RPMI-8226 leukemia

COC(=O)c1ccccc1C1CN=NC12Cc1cc(C)cc(C)c1C2=O (centres undefined)
TGI [1]: > 100 µM | TGI [2]: > 100 µM | TGI [3]: > 100 µM | TGI [4]: > 100 µM | TGI [5]: > 100 µM | TGI [6]: > 100 µM | TGI [7]: > 100 µM | TGI [8]: > 100 µM | TGI [9]: > 100 µM | TGI [10]: > 100 µM | TGI [11]: > 100 µM | TGI [12]: > 100 µM | TGI [13]: 66.2 µM | TGI [14]: > 100 µM | TGI [15]: > 100 µM | TGI [16]: > 100 µM | TGI [17]: > 100 µM | TGI [18]: > 100 µM | TGI [19]: 76.6 µM | TGI [20]: > 100 µM | TGI [21]: > 100 µM | TGI [22]: > 100 µM | TGI [23]: > 100 µM | TGI [24]: 51.7 µM | TGI [25]: > 100 µM | TGI [26]: > 100 µM | TGI [27]: > 100 µM | TGI [28]: > 100 µM | TGI [29]: > 100 µM | TGI [30]: > 100 µM | TGI [31]: > 100 µM | TGI [32]: > 100 µM | TGI [33]: > 100 µM | TGI [34]: > 100 µM | TGI [35]: > 100 µM | TGI [36]: > 100 µM | TGI [37]: > 100 µM | TGI [38]: > 100 µM | TGI [39]: > 100 µM | TGI [40]: > 100 µM | TGI [41]: 90 µM | TGI [42]: > 100 µM | TGI [43]: > 100 µM | TGI [44]: > 100 µM | TGI [45]: > 100 µM | TGI [46]: > 100 µM | TGI [47]: > 100 µM | TGI [48]: > 100 µM | TGI [49]: > 100 µM | TGI [50]: > 100 µM | TGI [51]: > 100 µM | TGI [52]: > 100 µM | TGI [53]: > 100 µM | TGI [54]: > 100 µM | TGI [55]: > 100 µM | TGI [56]: > 100 µM | TGI [57]: > 100 µM

Oc1cccc2c1[nH]c1c(C3=C[C@@]4(O)CC/C=C\CCCCN5CC[C@@H]3[C@]3(CC6/C=C\CCCCN6[C@H]34)C5)nccc12 (some centres undefined)
TGI [1]: 1.85 µM | TGI [2]: 4.1 µM | TGI [3]: 4.43 µM | TGI [4]: 3.19 µM | TGI [5]: 2.04 µM | TGI [6]: 2.19 µM | TGI [7]: 2.83 µM | TGI [8]: 3.73 µM | TGI [9]: 5.56 µM | TGI [10]: 2.97 µM | TGI [11]: 6.15 µM | TGI [12]: 1.86 µM | TGI [13]: 7.65 µM | TGI [14]: 2.96 µM | TGI [58]: 2.6 µM | TGI [16]: 3.87 µM | TGI [17]: 3.29 µM | TGI [18]: 2.88 µM | TGI [19]: 1.86 µM | TGI [20]: 2 µM | TGI [21]: 5.79 µM | TGI [22]: 2.79 µM | TGI [23]: 2.74 µM | TGI [24]: 2.59 µM | TGI [25]: 3.74 µM | TGI [26]: 2.45 µM | TGI [27]: 4.87 µM | TGI [28]: 1.3 µM | TGI [29]: 3.02 µM | TGI [30]: 3.18 µM | TGI [31]: 4.64 µM | TGI [32]: 2.25 µM | TGI [33]: 3.44 µM | TGI [34]: 14.6 µM | TGI [35]: 6.31 µM | TGI [36]: 4.04 µM | TGI [37]: 3.86 µM | TGI [38]: 4.95 µM | TGI [39]: 1.87 µM | TGI [40]: 2.01 µM | TGI [41]: 2.4 µM | TGI [42]: 2.81 µM | TGI [43]: 5.15 µM | TGI [44]: 2.99 µM | TGI [45]: 4.37 µM | TGI [46]: 3.5 µM | TGI [47]: 3.71 µM | TGI [48]: 5.17 µM | TGI [49]: 1.77 µM | TGI [50]: 2.49 µM | TGI [51]: 2.79 µM | TGI [52]: 3.69 µM | TGI [53]: 4.39 µM | TGI [54]: 2.17 µM | TGI [55]: 3.26 µM | TGI [56]: 2.56 µM | TGI [57]: 2.81 µM
